Key:
Assay type in all cases: in vivo
Tyrophagus putrescentiae [1] = assay: Two-choice bioassay (filter paper rectangles), attraction of mites
Method: (§1) A composition comprising menthone was prepared by diluting liquid menthone with a density of 0.894 (mixture of stereoisomers L-menthone and D-isomenthone, with 98% purity, from Alfa Aesar, Haverhill, USA) in water to obtain a concentration of 0.1 μl/mL (i.e., 10^−4 L/L), corresponding to a concentration of about 0.0894 mg/mL or a concentration of about 0.00894% (w/v). Said composition has a molar concentration of menthone of about 0.58 mM.
(§2) Compositions comprising menthone at different concentrations were prepared by serial dilutions in water of the composition comprising menthone at 10^−4 L/L (from 10^−4 L/L to 10^−8 L/L, i.e., from about 0.0894 mg/mL to about 8.94 ng/mL) and their capacity to attract acarids was tested.
(§3) A composition comprising peppermint oil (also known as essential oil of Mentha piperita), which itself comprises menthone, was prepared by diluting peppermint oil with a density of 0.898 g/mL (natural peppermint oil from Mentha piperita L., Sigma, St Louis, USA) in water to obtain a concentration of 0.1 μl/mL (i.e., 10^−4 L/L), corresponding to a concentration of about 0.0898 mg/mL or a concentration of about 0.00898% (w/v). Compositions comprising peppermint oil at different concentrations were prepared by serial dilutions in water of the composition comprising peppermint oil at 10^−4 L/L (from 10^−4 L/L to 10^−6 L/L, i.e., from about 0.0898 mg/mL to about 0.898 μg/mL) and their capacity to attract acarids was tested.
The experimental protocol was inspired by the quantitative choice bioassay run by Synder et al., in 1993. Said bioassay consisted of two rectangles of filter paper of equal dimensions, positioned so as to be parallel to each other and less than 2 cm apart in a petri dish with a 6 cm diameter. 10 μL microliters of the composition comprising menthone, either alone (i.e., isolated) or within peppermint oil, were loaded on one rectangle and 10 μL of solvent (i.e., water) were loaded on the other as a control. After the solvent evaporated, a small strip of filter paper was used to bridge the rectangles. A group of 30-40 mites was then transferred to the middle of the bridge and their movements were observed. The rectangle for which they exited the bridge was recorded. Each assay comprised two sets of rectangles of filter paper connected with a bridge, with the composition comprising menthone, either alone (i.e., isolated) or within peppermint oil, loaded on opposing rectangles in each set (e.g., rectangle on the left in the first set, and rectangle on the right in the second set). Data were submitted to Fisher analysis.
(§4) Statistical significance was assessed using a Fisher's exact test.

[2] = test system: Dermatophagoides pteronyssinus; assay: Two-choice bioassay (vegetable fiber support discs), attraction of mites
Method: as §1, §2, §3
(§5) Responses of Dermatophagoides spp. to compositions comprising menthone, either alone (i.e., isolated) or within peppermint oil, were tested in a two-choice bioassay as described in Otieno et al., 1985. Said bioassay comprised two support discs made of vegetable fiber (with a diameter of 1.7 cm), i.e., a test support and a control support, placed in a Petri dish (with a diameter of 6 cm) kept at 20-28° C. in the dark at 30% humidity. Compositions comprising menthone, either alone (i.e., isolated) or within peppermint oil, (50 μL or less) were applied via a syringe to the test support. The control support was loaded with water only. An appropriate number of mites were placed in the center of the dish, equidistant from the test support and the control support. The bioassay system was then left for 24 hr or less at 20-28° C. in the dark at 30% humidity before a count of the mites assembled on the test support and on the control support was made. Several replicates were run for each test.
as §4

Dermatophagoides farinae [3] = assay: as above
Method: as §1, §2, §3, §5, §4

Tyrophagus putrescentiae [4] = assay: Simulated use test, infested cushion covered with sprayed sheet; conditions: menthone 10^−6 L/L, 6 sprays on sheet, 1 h, cushion infested with three mite species, N = 3
Method: (§6) A composition comprising menthone at a concentration of 10^−6 L/L was prepared by diluting 1 μL liquid menthone as described hereinabove (mixture of stereoisomers L-menthone and D-isomenthone, with 98% purity, from Alfa Aesar, Haverhill, USA) in 1 L of water. Hereafter, said composition is referred to as “compositions comprising menthone alone” or “compositions comprising menthone”.
(§7) A composition comprising peppermint oil at a concentration of 10^−5 L/L was prepared by diluting 10 μL peppermint oil (natural peppermint oil from Mentha piperita L., Sigma, St Louis, USA) as described hereinabove in 1 L of water. Hereafter, said composition is referred to as “composition comprising menthone within peppermint oil” or “composition comprising peppermint oil”.
(§8) In order to simulate real-life utilization of the composition for attracting pests of the invention, a common household furniture such as a cushion was infested with living mites and treated with a composition comprising menthone at a concentration of 10^−6 L/L (corresponding to a concentration of menthone of about 9×10^−4 mg/mL) or with a composition comprising peppermint oil at a concentration of 10^−5 L/L (corresponding to a concentration of peppermint oil of about 9×10^−3 mg/mL). As described in Japanese application JP2000336007 and in U.S. Pat. No. 6,415,545, the treatment consisted in laying a sheet on the infested household furniture and spraying the compositions to be tested over it. The number of attracted and unattracted mites was then counted to evaluate the efficacy of the tested composition. All the tests were run at 20-25° C. and 30-35% relative humidity, conditions normally found in households.
(§9) Brand new cushions (43×30×6 cm, Tom&Co) were infested with 400 Tyrophagus putrescentiae, 100 Dermatophagoides farinae and 100 Dermatophagoides pteronyssinus. The proportion of each species respected the average composition of natural mite populations that can be found in a pet basket: ⅔ of storage mites, ⅓ of house dust mites. Small pieces of dry dog food were spread over the cushions as a nourishment for mites. After the infestation, mites were allowed to settle down for 15 hours.
(§10) After 15 hours, a dark sheet was placed over the cushion to be treated. The size of the sheet was sufficient to cover the entire upper surface of the cushion (43×30 cm). The sheet was sprayed 6 times (total volume sprayed about 4 ml) with a composition comprising menthone, either alone (i.e., isolated) or within peppermint oil, or with water (control), keeping the bottle at a distance of about 30 cm from the sheet to be sprayed. A dry control was also used, corresponding to an untreated sheet, i.e., a sheet that was not sprayed. Sprays were evenly distributed in order to cover the totality of the sheet. The sheet was left in place for 1 h. 3 replicates were run with the composition comprising menthone, either alone (i.e., isolated) or within peppermint oil, and 3 replicates were run with the control.
(§11) In order to determine the number of mites within an infested place, the usual method is to vacuum the infested place (Wassenaar 1988). Each sheet was vacuumed for 2 minutes using a special filter (as described in the European patent application EP0630478) that retains the collected dust. The dust sample was then analyzed (see Step 4) in order to determine the number of mites attracted by the composition comprising menthone, either alone (i.e., isolated) or within peppermint oil. Similarly, after removal of the sheet, each cushion was vacuumed to determine the number of remaining mites (i.e., the number of mites that were not attracted by the composition comprising menthone, either alone (i.e., isolated) or within peppermint oil). The relative proportion of mites into the sheet and into the cushion determined the efficacy of the treatment (see Step 4). […]

Total number of mites = assay: as above
Method: as §6, §7, §8, §9, §10, §11

[5] = test system: Dermatophagoides pteronyssinus; assay: as above; conditions: menthone 10^−6 L/L, 6 sprays on sheet, 1 h, cushion infested with three mite species, N = 3
Method: as §6, §7, §8, §9, §10, §11

Dermatophagoides farinae [6] = assay: as above; conditions: menthone 10^−6 L/L, 6 sprays on sheet, 1 h, cushion infested with three mite species, N = 3
Method: as §6, §7, §8, §9, §10, §11

[7] = composition comprising menthone 10^−4 L/L in water vs water
[8] = composition comprising menthone 10^−5 L/L in water vs water
[9] = composition comprising menthone 10^−6 L/L in water vs water
[10] = composition comprising menthone 10^−7 L/L in water vs water
[11] = composition comprising menthone 10^−8 L/L in water vs water

With `CC1CCC(C(C)C)C(=O)C1` (stereo not shown) [menthone] the Mean efficiency (Tyrophagus putrescentiae [1]; [7]) was 50%, the Mean efficiency (Tyrophagus putrescentiae [1]; [8]) was 47% and the Mean efficiency (Tyrophagus putrescentiae [1]; [9]) was 57%. The Mean efficiency (Tyrophagus putrescentiae [1]; [10]) was 53%, the Mean efficiency (Tyrophagus putrescentiae [1]; [11]) was 49% and the Mean efficiency [2, 7] was 42%. The Mean efficiency [2, 8] was 50%, the Mean efficiency [2, 9] was 67% and the Mean efficiency [2, 10] was 42%. The Mean efficiency (Dermatophagoides farinae [3]; [7]) was 41%, the Mean efficiency (Dermatophagoides farinae [3]; [8]) was 40% and the Mean efficiency (Dermatophagoides farinae [3]; [9]) was 62%. For the same compound, the Mean efficiency (Dermatophagoides farinae [3]; [10]) was 49%, the Mean efficiency (Dermatophagoides farinae [3]; [11]) was 51% and the “Efficacy (mites attracted out of the cushion)” value (“Efficacy” for short) (Tyrophagus putrescentiae [4]) was 69%. For the same compound, the “Efficacy” value (Tyrophagus putrescentiae [4]; listed as Menthone) was 69% (±8%), the “more mites attracted out of the infested cushion compared to the control” value (Total number of mites; menthone 10^−6 L/L vs water control, Fisher's exact test, p-value=0.0006) was 21% and the “Efficacy” value (Total number of mites; menthone 10^−6 L/L, 6 sprays on sheet, 1 h, cushion infested with three mite species, N = 3) was 54% (±5%). The “Efficacy” value [5] was 44%, the “Efficacy” value ([5]; listed as Menthone) was 44% and the “Efficacy” value (Dermatophagoides farinae [6]) was 47%. The “Efficacy” value (Dermatophagoides farinae [6]; listed as Menthone) was 47% (±6%).
